The target in experiment [1] is Prostaglandin E2 receptor EP4 subtype (Homo sapiens, UniProt P35408). The experiment in a line: hEP4 cAMP Assay. How it is done:
Plate is pre-incubated 45 minutes at room temperature. Subsequently, 2.5 microliters of PGE2 (final conc. 6 nM) are transferred into the assay plate. Plate is incubated 30 minutes at room temperature.

Experiment [2] concerns the target Prostaglandin E2 receptor EP2 subtype (Homo sapiens, UniProt P43116). Description: hEP2 cAMP Assay.
Method: Plate is pre-incubated 45 minutes at room temperature. […] Plate is incubated 30 minutes at room temperature. […] For each compound concentration the percentage of cAMP compared to DMSO control value as average±STDEV (each concentration is measured in duplicate) is calculated.

Sequence of Prostaglandin E2 receptor EP4 subtype (P35408 whole entry): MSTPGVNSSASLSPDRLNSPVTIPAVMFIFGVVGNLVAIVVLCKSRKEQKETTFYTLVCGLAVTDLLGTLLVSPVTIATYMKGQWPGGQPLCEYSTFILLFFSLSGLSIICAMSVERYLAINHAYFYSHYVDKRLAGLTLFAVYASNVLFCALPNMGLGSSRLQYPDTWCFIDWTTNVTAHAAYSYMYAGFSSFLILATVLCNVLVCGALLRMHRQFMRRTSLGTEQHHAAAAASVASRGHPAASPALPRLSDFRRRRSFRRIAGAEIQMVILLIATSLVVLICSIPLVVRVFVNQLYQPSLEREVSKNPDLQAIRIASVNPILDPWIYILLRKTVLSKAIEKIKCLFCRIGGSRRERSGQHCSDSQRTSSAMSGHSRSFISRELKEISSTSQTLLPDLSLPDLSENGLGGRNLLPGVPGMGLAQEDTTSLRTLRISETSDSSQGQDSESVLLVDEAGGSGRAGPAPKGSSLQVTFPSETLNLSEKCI
Sequence of Prostaglandin E2 receptor EP2 subtype (P43116 whole entry): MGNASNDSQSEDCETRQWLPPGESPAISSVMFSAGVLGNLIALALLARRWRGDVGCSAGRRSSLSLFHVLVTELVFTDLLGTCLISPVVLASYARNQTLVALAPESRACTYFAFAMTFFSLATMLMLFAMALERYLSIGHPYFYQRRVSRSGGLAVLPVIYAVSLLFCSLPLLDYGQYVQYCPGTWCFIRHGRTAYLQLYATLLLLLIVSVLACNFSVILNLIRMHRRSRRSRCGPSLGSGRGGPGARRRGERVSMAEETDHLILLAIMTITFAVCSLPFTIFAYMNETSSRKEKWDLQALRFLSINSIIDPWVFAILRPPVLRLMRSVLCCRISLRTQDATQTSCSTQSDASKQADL

For the molecule `Cc1ccc(F)c2c1cc(C)n2CCNc1cc(-c2ccc3c(c2)CNC3=O)ncn1` [US12011444, Example 65], the half-inhibitory concentration (IC50) in experiment [1] worked out at 697 nM; in experiment [2] it was 41 nM.

On to `COc1ccc(F)c2c1cc(C)n2CCNc1cc(-c2ccc(C(=O)O)c(N)c2)ncn1` [US12011444, Example 214], for which the half-maximal inhibitory concentration (IC50) was 786 nM in experiment [1] and 38 nM in experiment [2].

As for `COc1ccc(F)c2c1cc(C)n2CCNc1cc(-c2ccc(C(=O)O)c(C(C)(C)C)c2)ncn1` [US12011444, Example 535], the 50% inhibitory concentration (IC50) came out at 136 nM in experiment [1] and 68 nM in experiment [2].

In the case of `Cc1cc(F)cc2c1cc(C)n2CCNc1cc(-c2ccc(C(=O)O)c(NCC(F)(F)F)c2)ncn1` [US12011444, Example 559], the half-inhibitory concentration (IC50) in experiment [1] is 247 nM; in experiment [2] it was 4 nM.

For `COc1cc(F)c(F)c2c1cc(C)n2CCNc1cc(-c2ccc3oc(C)nc3c2)ncn1` [US12011444, Example 689], the IC50 in experiment [1] was 558 nM; in experiment [2], 211 nM.

Turning to `Cc1cc(F)cc2c1cc(C)n2CCNc1cc(-c2cccc(-n3cccn3)c2)ncn1` [US12011444, Example 729], the 50% inhibitory concentration (IC50) in experiment [1] stood at 783 nM; in experiment [2] it was 45 nM.

As to `CCOc1cc(-c2cc(NCCn3c(C)cc4c(OC)ccc(F)c43)ncn2)ccc1C(=O)NOCc1ccccc1` [US12011444, Example 766], the values for the IC50 in experiment [1] and in experiment [2] were 80 nM and 57 nM, respectively.

`CCOc1cc(-c2cc(NCCn3c(C)cc4c(OC)ccc(F)c43)ncn2)ccc1C(=O)NOCCO` [US12011444, Example 769]: the values for the IC50 in experiment [1] and in experiment [2] were 259 nM and 11 nM, respectively.

In the case of `CCOc1cc(-c2cc(NCCn3c(C)cc4c(C)ccc(F)c43)ncn2)ccc1C(=O)NOCCO` [US12011444, Example 771], the half-inhibitory concentration (IC50) in experiment [1] came out at 310 nM; in experiment [2] it was 19 nM.

For the molecule `COc1cc(F)cc2c1cc(C)n2CCNc1cc(-c2cc(O)cs2)ncn1` [US12011444, Example 801], the results for the half-maximal inhibitory concentration (IC50) in experiment [1] and in experiment [2] were 139 nM and 20 nM, respectively.

(Values after BindingDB's records for patent US12011444 (Idorsia Pharmaceuticals, 2024).)
